Results on 10 compounds are retold here after US9765105B2, “Macrolide compound” (Pulike Biological Engineering, Inc., priority 2013, dated 2017).

Structures are written as SMILES.

Common to all, as to test: in vitro susceptibility, MIC by mini broth dilution
Type in all cases: cell-based
(In broth dilution the organism is exposed to a series of concentrations in liquid medium.)

The subject of assay [1] is Staphylococcus aureus CVCC26003. The settings on record: strain CVCC26003. The method in brief:
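MICs were determined by mini broth dilution under NCCLS standards in CAMHB, using revived S. aureus CVCC26003 subcultured 20 h at 35° C. Compounds were two-fold serially diluted in DMSO across 11 wells, with duplicate rows. Bacterial suspension was diluted 1:200 in medium before inoculation.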

Assay [2] has as its system Actinobacillus pleuropneumoniae CVCC262. The settings on record: strain CVCC262. The method in brief:
(§1)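 MICs determined by mini broth dilution following NCCLS standards, using two-fold serial dilutions of compound in DMSO across 11 gradients, in duplicate rows. Strains were revived and subcultured at 35 °C for 20 h. Bacterial suspension was diluted 1:200 in liquid medium.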

The test system of assay [3] is Pasteurella multocida CVCC399. The settings on record: strain CVCC399. The method in brief:
as §1

For assay [4], the system named is Streptococcus equines CVCC556. The settings on record: strain CVCC556. The method in brief: as §1
Another assay relates to Haemophilus parasuis. In outline: as §1

Consider `CC[C@H]1OC(=O)[C@H](C)[C@@H](O[C@H]2C[C@@](C)(OC)[C@](O)(CNCc3ccccc3F)[C@H](C)O2)[C@H](C)[C@@H](O[C@@H]2O[C@H](C)C[C@H](N(C)C)[C@H]2O)[C@](C)(O)C[C@@H](C)NC[C@H](C)[C@@H](O)[C@]1(C)O` [syzx-92, (2R,3S,4R,5S,8R,10R,11R,12S,13S,14R)-13-[(2,6-dideoxy-3-C-methyl-3-O-methyl-4-C-[(2-fluorobenzyl-amino)-methyl]-α-L-ribopyranosyl)oxy]-2-ethyl-3,4,10-trihydroxy-3,5,10,12,14-hexamethyl-11-[[3,4,6-trideoxy-3-(dimethylamino)-β-D-xylo-hexopyranosy]oxy]-1-oxa-7-azacyclopentadecan-15-one], for which, in assay [1], the “MIC values, Staphylococcus aureus CVCC26003” value is on record as 1 ug/mi. Further, the “MIC values, Actinobacillus pleuropneumoniae CVCC262” value in assay [2] is on record as 0.5 ug/mi. In addition, the “MIC values, Pasteurella multocida CVCC399” value in assay [3] came to 2 ug/mi. Also, the “MIC values, Streptococcus equines CVCC556” value in assay [4] is 0.25 ug/mi. In addition, in the assay with Haemophilus parasuis, the “MIC values, Haemophilus parasuis” value was 0.5 ug/mi.

With `CC[C@H]1OC(=O)[C@H](C)[C@@H](O[C@H]2C[C@@](C)(OC)[C@](O)(CNCC3CCNCC3)[C@H](C)O2)[C@H](C)[C@@H](O[C@@H]2O[C@H](C)C[C@H](N(C)C)[C@H]2O)[C@](C)(O)C[C@@H](C)NC[C@H](C)[C@@H](O)[C@]1(C)O` [syzx-93], the “MIC values, Staphylococcus aureus CVCC26003” value in assay [1] is on record as 32 ug/mi. Moreover, in assay [2], the “MIC values, Actinobacillus pleuropneumoniae CVCC262” value was determined as 16 ug/mi. For the same compound, the “MIC values, Pasteurella multocida CVCC399” value in assay [3] was 64 ug/mi. In addition, the “MIC values, Streptococcus equines CVCC556” value in assay [4] amounted to 1 ug/mi. For the same compound, the “MIC values, Haemophilus parasuis” value in the assay with Haemophilus parasuis is 8 ug/mi.

For `CC[C@H]1OC(=O)[C@H](C)[C@@H](O[C@H]2C[C@@](C)(OC)[C@](O)(CNc3cc(Cl)ccc3C)[C@H](C)O2)[C@H](C)[C@@H](O[C@@H]2O[C@H](C)C[C@H](N(C)C)[C@H]2O)[C@](C)(O)C[C@@H](C)NC[C@H](C)[C@@H](O)[C@]1(C)O` [syzx-94, (2R,3S,4R,5S,8R,10R,11R,12S,13S,14R)-13-[(2,6-dideoxy-3-C-methyl-3-O-methyl-4-C-[(5-chloro-o-methylphenyl-amino)-methyl]-α-L-ribopyranosyl)oxy]-2-ethyl-3,4,10-trihydroxy-3,5,8,10,12,14-hexamethyl-11-[[3,4,6-trideoxy-3-(dimethylamino)-β-D-xylo-hexopyranosy]oxy]-1-oxa-7-azacyclopentadecan-15-one], in assay [1], the “MIC values, Staphylococcus aureus CVCC26003” value is listed as 1 ug/mi. Moreover, the “MIC values, Actinobacillus pleuropneumoniae CVCC262” value in assay [2] is reported as 0.5 ug/mi. Moreover, the “MIC values, Pasteurella multocida CVCC399” value in assay [3] came to 2 ug/mi. In assay [4], the “MIC values, Streptococcus equines CVCC556” value is reported as 0.25 ug/mi. Moreover, the “MIC values, Haemophilus parasuis” value against Haemophilus parasuis came out at 0.5 ug/mi.

In the case of `CC[C@H]1OC(=O)[C@H](C)[C@@H](O[C@H]2C[C@@](C)(OC)[C@](O)(CNc3ccccc3F)[C@H](C)O2)[C@H](C)[C@@H](O[C@@H]2O[C@H](C)C[C@H](N(C)C)[C@H]2O)[C@](C)(O)C[C@@H](C)NC[C@H](C)[C@@H](O)[C@]1(C)O` [syzx-95, (2R,3S,4R,5S,8R,10R,11R,12S,13S,14R)-13-[(2,6-dideoxy-3-C-methyl-3-O-methyl-4-C-[(2-fluoro-phenyl-amino)-methyl]-α-L-ribopyranosyl)oxy]-2-ethyl-3,4,10-trihydroxy-3,5,8,10,12,14-hexamethyl-11-[[3,4,6-trideoxy-3-(dimethylamino)-β-D-xylo-hexopyranosy]oxy]-1-oxa-7-azacyclopentadecan-15-one], the “MIC values, Staphylococcus aureus CVCC26003” value in assay [1] is 2 ug/mi. Also, in assay [2], the “MIC values, Actinobacillus pleuropneumoniae CVCC262” value is 2 ug/mi. The “MIC values, Pasteurella multocida CVCC399” value in assay [3] was 2 ug/mi. In addition, the “MIC values, Streptococcus equines CVCC556” value in assay [4] is on record as 0.5 ug/mi. The “MIC values, Haemophilus parasuis” value against Haemophilus parasuis came to 2 ug/mi.

With `CCC1OC(=O)C(C)C(OC2CC(C)(OC)C(O)(CNc3cc(C)ccc3F)C(C)O2)C(C)C(OC2OC(C)CC(N(C)C)C2O)C(C)(O)CC(C)NCC(C)C(O)C1(C)O` [syzx-96, (2R,3S,4R,5S,8R,10R,11R,12S,13S,14R)-13-[(2,6-dideoxy-3-C-methyl-3-O-methyl-4-C-[(2-fluoro-5-methylphenyl-amino)-methyl]-α-L-ribopyranosyl)oxy]-2-ethyl-3,4,10-trihydroxy-3,5,8,10,12,14-hexamethyl-11-[[3,4,6-trideoxy-3-(dimethylamino)-β-D-xylo-hexopyranosy]oxy]-1-oxa-7-azacyclopentadecan-15-one], in assay [1], the “MIC values, Staphylococcus aureus CVCC26003” value is reported as 1 ug/mi. Moreover, the “MIC values, Actinobacillus pleuropneumoniae CVCC262” value in assay [2] stood at 0.5 ug/mi. Also, the “MIC values, Pasteurella multocida CVCC399” value in assay [3] is 2 ug/mi. The “MIC values, Streptococcus equines CVCC556” value in assay [4] is given as 0.25 ug/mi. Also, the “MIC values, Haemophilus parasuis” value in the assay on Haemophilus parasuis is recorded as 0.5 ug/mi.

`CC[C@H]1OC(=O)[C@H](C)[C@@H](O[C@H]2C[C@@](C)(OC)[C@](O)(CNc3ccc(Cl)cc3C)[C@H](C)O2)[C@H](C)[C@@H](O[C@@H]2O[C@H](C)C[C@H](N(C)C)[C@H]2O)[C@](C)(O)C[C@@H](C)NC[C@H](C)[C@@H](O)[C@]1(C)O` [syzx-97, (2R,3S,4R,5S,8R,10R,11R,12S,13S,14R)-13-[(2,6-dideoxy-3-C-methyl-3-O-methyl-4-C-[(2-methyl-4-chloro-phenyl-amino)-methyl]-α-L-ribopyranosyl)oxy]-2-ethyl-3,4,10-trihydroxy-3,5,8,10,12,14-hexamethyl-11-[[3,4,6-trideoxy-3-(dimethylamino)-β-D-xylo-hexopyranosy]oxy]-1-oxa-7-azacyclopentadecan-15-one]: the “MIC values, Staphylococcus aureus CVCC26003” value in assay [1] came out at 1 ug/mi. In addition, the “MIC values, Actinobacillus pleuropneumoniae CVCC262” value in assay [2] stood at 128 ug/mi. Besides, in assay [3], the “MIC values, Pasteurella multocida CVCC399” value is given as 4 ug/mi. For the same compound, in assay [4], the “MIC values, Streptococcus equines CVCC556” value was determined as 0.5 ug/mi. Also, the “MIC values, Haemophilus parasuis” value against Haemophilus parasuis amounted to 1 ug/mi.

For the compound `CCCCN(C)C[C@]1(O)[C@H](C)O[C@@H](O[C@H]2[C@H](C)[C@@H](O[C@@H]3O[C@H](C)C[C@H](N(C)C)[C@H]3O)[C@](C)(O)C[C@@H](C)NC[C@H](C)[C@@H](O)[C@](C)(O)[C@@H](CC)OC(=O)[C@@H]2C)C[C@@]1(C)OC` [syzx-98, (2R,3S,4R,5S,8R,10R,11R,12S,13S,14R)-13-[(2,6-dideoxy-3-C-methyl-3-O-methyl-4-C-[(N-methyl-butyl-amino)-methyl]-α-L-ribopyranosyl)oxy]-2-ethyl-3,4,10-trihydroxy-3,5,8,10,12,14-hexamethyl-11-[[3,4,6-trideoxy-3-(dimethylamino)-β-D-xylo-hexopyranosy]oxy]-1-oxa-7-azacyclopentadecan-15-one], in assay [1], the “MIC values, Staphylococcus aureus CVCC26003” value was 1 ug/mi. Also, the “MIC values, Actinobacillus pleuropneumoniae CVCC262” value in assay [2] worked out at 0.5 ug/mi. The “MIC values, Pasteurella multocida CVCC399” value in assay [3] was 2 ug/mi. Further, the “MIC values, Streptococcus equines CVCC556” value in assay [4] came to 0.25 ug/mi. In the assay on Haemophilus parasuis, the “MIC values, Haemophilus parasuis” value is given as 0.5 ug/mi.

On to `CC[C@H]1OC(=O)[C@H](C)[C@@H](O[C@H]2C[C@@](C)(OC)[C@](O)(CNc3ccc4ncccc4c3)[C@H](C)O2)[C@H](C)[C@@H](O[C@@H]2O[C@H](C)C[C@H](N(C)C)[C@H]2O)[C@](C)(O)C[C@@H](C)NC[C@H](C)[C@@H](O)[C@]1(C)O` [syzx-99, (2R,3S,4R,5S,8R,10R,11R,12S,13S,14R)-13-[(2,6-dideoxy-3-C-methyl-3-O-methyl-4-C-[(quinolin-6-yl-amino)-methyl]-α-L-ribopyranosyl)oxy]-2-ethyl-3,4,10-trihydroxy-3,5,8,10,12,14-hexamethyl-11-[[3,4,6-trideoxy-3-(dimethylamino)-β-D-xylo-hexopyranosy]oxy]-1-oxo-7-azacyclopentadecan-15-one], for which the “MIC values, Staphylococcus aureus CVCC26003” value in assay [1] is recorded as 4 ug/mi. Also, the “MIC values, Actinobacillus pleuropneumoniae CVCC262” value in assay [2] is recorded as 128 ug/mi. The “MIC values, Pasteurella multocida CVCC399” value in assay [3] is 8 ug/mi. Moreover, in assay [4], the “MIC values, Streptococcus equines CVCC556” value was 2 ug/mi. Besides, in the assay on Haemophilus parasuis, the “MIC values, Haemophilus parasuis” value turned out to be 4 ug/mi.

On to `CC[C@H]1OC(=O)[C@H](C)[C@@H](O[C@H]2C[C@@](C)(OC)[C@](O)(CNC(C)C(C)(C)C)[C@H](C)O2)[C@H](C)[C@@H](O[C@@H]2O[C@H](C)C[C@H](N(C)C)[C@H]2O)[C@](C)(O)C[C@@H](C)NC[C@H](C)[C@@H](O)[C@]1(C)O` (stereo partly drawn) [syzx-100, (2R,3S,4R,5S,8R,10R,11R,12S,13S,14R)-13-[(2,6-dideoxy-3-C-methyl-3-O-methyl-4-C-[(1,2,2-trimethyl-propylamino)-methyl]-α-L-ribopyranosyl)oxy]-2-ethyl-3,4,10-trihydroxy-3,5,8,10,12,14-hexamethyl-11-[[3,4,6-trideoxy-3-(dimethylamino)-β-D-xylo-hexopyranosy]oxy]-1-oxa-7-azacyclopentadecan-15-one], for which the “MIC values, Staphylococcus aureus CVCC26003” value in assay [1] was found to be 1 ug/mi. For the same compound, the “MIC values, Actinobacillus pleuropneumoniae CVCC262” value in assay [2] amounted to 1 ug/mi. Moreover, the “MIC values, Pasteurella multocida CVCC399” value in assay [3] was 0.5 ug/mi. Moreover, the “MIC values, Streptococcus equines CVCC556” value in assay [4] came to 2 ug/mi. The “MIC values, Haemophilus parasuis” value against Haemophilus parasuis stood at 2 ug/mi.

Take `CCCCNC[C@]1(O)[C@H](C)O[C@@H](O[C@H]2[C@H](C)[C@@H](O[C@@H]3O[C@H](C)C[C@H](N(C)C)[C@H]3O)[C@](C)(O)C[C@@H](C)N(CCC)C[C@H](C)[C@@H](O)[C@](C)(O)[C@@H](CC)OC(=O)[C@@H]2C)C[C@@]1(C)OC` [syzx-102]: the “MIC values, Staphylococcus aureus CVCC26003” value in assay [1] stood at 0.25 ug/mi. In assay [2], the “MIC values, Actinobacillus pleuropneumoniae CVCC262” value is 0.25 ug/mi. In assay [3], the “MIC values, Pasteurella multocida CVCC399” value came to 0.5 ug/mi. Besides, the “MIC values, Streptococcus equines CVCC556” value in assay [4] stood at 0.25 ug/mi. The “MIC values, Haemophilus parasuis” value in the assay on Haemophilus parasuis is 0.25 ug/mi.
